What all share (type): cell-based
One assay deals with T1, S1P5 (Homo sapiens, UniProt Q9H228).
T1 construct: Tango fusion (C); host or cells: U2OS (Tango, bla reporter)
Briefly: Specificity over other S1P receptors: S1P5-bla TANGO U2OS. To be noted: without Forskolin, read-out: S1P5 agonist value (EC50). As for the experimental part: (§1) Cells were seeded into 384-well black wall/clear bottom plates at 10^4 cells/well/19.5 μl assay media (DMEM-phenol free, 0.5% charcoal/dextran stripped serum, 2 mM glutamine, 0.1 mM NEAA, 1 mM Na-Pyruvate, 25 mM Hepes) and incubated for 18 hrs at 37° C. in 5% CO2. Dose response curves (10-point) were generated in 10 mM Hepes, 0.1% Pluronic F127, in the presence of Forskolin. Cells were treated with 0.5 μl compound in the presence of 2 μM Forskolin for 4 hrs at 37° C. The FRET-based β-lactamase fluorescent substrate (LiveBLAzer™-FRET B/G Loading Kit CC4-AM; Invitrogen) was prepared according to manufacturer's directions, and incubated with cells for 2 hrs at room temperature. Plates were read at Ex:410/Em:458 and Ex:410/Em:522, and the response ratio determined. Data was analyzed by non-linear regression to determine the EC50 for inhibition of Forskolin induced cAMP.
(§2) To assess compound specificity on other S1P receptors the following cell lines were used: S1P2 CRE-bla CHOK1, S1P3-Gα15 NFAT-bla HEK293T (Invitrogen), S1P4-bla TANGO U2OS (Invitrogen), S1P5-bla TANGO U2OS (Invitrogen). The same assay set up for S1P1 was used but without Forskolin. S1P4 and S1P5 assays were performed in FreeStyle Expression medium (Invitrogen). S1P5 cells were incubated for 48 hrs in prior to treatment with compound.

The target in a further assay is S1P1/EDG1 (Homo sapiens, UniProt P21453). Nature of the assay: S1P1 CRE-bla CHOK1 reporter assay (inhibition of Forskolin induced cAMP). The note with it: S1P1 CRE-bla CHOK1 cells, 2 μM Forskolin.
Sequence of S1P1/EDG1 (P21453 whole entry): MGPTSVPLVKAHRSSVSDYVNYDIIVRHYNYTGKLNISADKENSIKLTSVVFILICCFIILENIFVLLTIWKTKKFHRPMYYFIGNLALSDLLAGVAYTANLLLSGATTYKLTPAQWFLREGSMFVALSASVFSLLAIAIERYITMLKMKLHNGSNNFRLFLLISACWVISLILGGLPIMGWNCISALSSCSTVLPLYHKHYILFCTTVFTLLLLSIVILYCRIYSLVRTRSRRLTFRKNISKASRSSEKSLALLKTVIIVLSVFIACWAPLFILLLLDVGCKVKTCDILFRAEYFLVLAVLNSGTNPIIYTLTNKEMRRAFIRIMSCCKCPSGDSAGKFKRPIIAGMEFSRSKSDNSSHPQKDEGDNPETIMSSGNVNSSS
Source text: A mammalian expression plasmid containing S1P1/EDG1 cloned into pcDNA3.1 was purchased from Missouri S&T cDNA Resource Centre. The nucleotide and amino acid sequence of human S1P1/EDG1 are published in Hla and Maciag (J Biol Chem, 265(1990), 9308-9313). S1P1/pcDNA3.1 was transfected into the CRE-bla CHO K1 (Invitrogen) cell line, and stable single cell clones were selected using standard techniques. Expression of functional S1P1/EDG1 receptor was confirmed by cell surface FACS with a S1P1 antibody (R&D Systems, clone 218713) and S1P-mediated inhibition of Forskolin induced cAMP.
as §1
For orientation: Reporter assays use an easily measured gene product as a stand-in for the process of interest.

The target of the next assay is T2, S1P3 (Homo sapiens, UniProt Q99500).
T2 construct: host or cells: NFAT-bla HEK293T
T2 sequence (Q99500 whole entry): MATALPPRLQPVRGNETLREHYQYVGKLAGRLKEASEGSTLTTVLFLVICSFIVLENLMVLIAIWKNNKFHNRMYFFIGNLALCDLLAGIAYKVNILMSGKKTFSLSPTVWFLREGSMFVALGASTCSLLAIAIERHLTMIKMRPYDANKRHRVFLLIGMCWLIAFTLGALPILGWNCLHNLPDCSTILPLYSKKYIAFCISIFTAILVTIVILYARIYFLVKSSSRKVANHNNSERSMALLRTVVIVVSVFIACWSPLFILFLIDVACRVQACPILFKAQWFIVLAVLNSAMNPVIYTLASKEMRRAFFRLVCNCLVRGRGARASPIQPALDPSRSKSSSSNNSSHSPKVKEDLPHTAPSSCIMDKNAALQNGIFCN
Briefly: Specificity over other S1P receptors: S1P3-Gα15 NFAT-bla HEK293T. The note with it: without Forskolin, read-out: S1P3 agonist value (EC50). Here is the method:
as §1, §2

The target in the next assay is T3, S1P4 (Homo sapiens, UniProt O95977).
T3 construct: Tango fusion (C); host or cells: U2OS (Tango, bla reporter)
T3 sequence (O95977 1-384): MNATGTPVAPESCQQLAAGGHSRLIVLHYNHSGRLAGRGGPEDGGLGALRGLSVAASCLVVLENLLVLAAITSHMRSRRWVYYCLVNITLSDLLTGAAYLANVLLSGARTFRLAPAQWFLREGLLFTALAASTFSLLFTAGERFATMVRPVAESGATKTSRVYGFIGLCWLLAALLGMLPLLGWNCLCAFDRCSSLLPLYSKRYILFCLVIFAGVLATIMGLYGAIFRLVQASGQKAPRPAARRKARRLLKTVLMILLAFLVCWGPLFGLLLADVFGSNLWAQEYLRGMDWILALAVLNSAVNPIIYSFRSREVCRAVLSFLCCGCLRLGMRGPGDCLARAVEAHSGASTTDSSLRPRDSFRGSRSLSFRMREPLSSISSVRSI
Briefly: Specificity over other S1P receptors: S1P4-bla TANGO U2OS. The note with it: without Forskolin, read-out: S1P4 agonist value (EC50). As for the experimental part:
as §1, §2

The next assay has as its target T4, S1P2 (Homo sapiens, UniProt O95136).
T4 construct: expressed in transfected cells; host or cells: CRE-bla CHOK1
Nature of the assay: Specificity over other S1P receptors: S1P2 CRE-bla CHOK1. The note with it: S1P2 CRE-bla CHOK1, without Forskolin; read-out: S1P2 agonist value (EC50). As for the experimental part:
as §1, §2

Setting [1] is: read-out: S1P1 agonist value (EC50).
Setting [2] is: agonist activity range, read-out: S1P1 ACTIVITY

Each structure is given as a SMILES string. Read-outs that look alike come from different tables or passages of the source.

T1 sequence (Q9H228 whole entry, the tested form may be a part): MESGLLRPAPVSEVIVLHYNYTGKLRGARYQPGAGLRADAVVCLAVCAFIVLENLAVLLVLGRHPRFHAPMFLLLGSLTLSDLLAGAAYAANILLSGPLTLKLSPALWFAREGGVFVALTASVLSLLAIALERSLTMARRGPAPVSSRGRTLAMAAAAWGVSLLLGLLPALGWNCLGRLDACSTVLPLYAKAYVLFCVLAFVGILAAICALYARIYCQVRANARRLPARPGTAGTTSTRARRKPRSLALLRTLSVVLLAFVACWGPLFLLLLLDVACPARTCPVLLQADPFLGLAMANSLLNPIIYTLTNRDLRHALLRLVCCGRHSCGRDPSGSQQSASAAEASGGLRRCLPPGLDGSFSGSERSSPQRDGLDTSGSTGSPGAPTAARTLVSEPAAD
T4 sequence (O95136 whole entry, species assumed): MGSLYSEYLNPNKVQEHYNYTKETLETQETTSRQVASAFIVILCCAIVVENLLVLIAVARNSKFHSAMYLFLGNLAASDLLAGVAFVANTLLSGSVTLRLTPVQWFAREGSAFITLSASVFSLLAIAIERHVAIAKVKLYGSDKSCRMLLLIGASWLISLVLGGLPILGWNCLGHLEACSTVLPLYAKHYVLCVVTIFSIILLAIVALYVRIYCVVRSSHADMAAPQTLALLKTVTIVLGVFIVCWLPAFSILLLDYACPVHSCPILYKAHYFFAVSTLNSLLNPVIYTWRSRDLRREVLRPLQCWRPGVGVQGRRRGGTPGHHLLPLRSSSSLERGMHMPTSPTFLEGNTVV

In the case of `CC(C)Oc1ccc(-c2nc(-c3cccc4c3CCC[C@@H]4NC(=O)N3CC(O)C3)no2)cc1C#N` [Compound 8, (S)-N-(5-(5-(3-cyano-4-isopropoxyphenyl)-1,2,4-oxadiazol-3-yl)-1,2,3,4-tetrahydronaphthalen-1-yl)-3-hydroxyazetidine-1-carboxamide], the EC50 was 109 nM on S1P5; 0.143 nM at S1P1/EDG1 (setting [1]); 0.05 to 0.5 nM on S1P1/EDG1 (setting [2]); above 10000 nM on S1P3; above 10000 nM on S1P4; above 10000 nM at S1P2.
Consider `CC(C)Oc1ccc(-c2nc(-c3cccc4c3CCC[C@H]4NC(=O)N3CC[C@H](O)C3)no2)cc1C#N` [Compound 13], for which the EC50 was 77 nM at S1P5; 0.1 nM on S1P1/EDG1 (setting [1]); 0.05 to 0.5 nM at S1P1/EDG1 (setting [2]); above 10000 nM at S1P3; above 10000 nM at S1P4; above 10000 nM on S1P2.
On to `CC(C)Oc1ccc(-c2nc(-c3cccc4c3CCC[C@@H]4NS(C)(=O)=O)no2)cc1C#N` [Compound 29, (S)-N-(5-(5-(3-cyano-4-isopropoxyphenyl)-1,2,4-oxadiazol-3-yl)-1,2,3,4-tetrahydronaphthalen-1-yl)methanesulfonamide], for which the EC50 on S1P5 is 37.8 nM; on S1P1/EDG1 (setting [1]) it was 0.065 nM; at S1P1/EDG1 (setting [2]) it was 0.05 to 0.5 nM; at S1P3, above 10000 nM; at S1P4 it was above 10000 nM; at S1P2, above 10000 nM.
On to `COCCS(=O)(=O)N[C@H]1CCCc2c(-c3noc(-c4ccc(OC(C)C)c(C#N)c4)n3)cccc21` [Compound 33, (S)-N-(5-(5-(3-cyano-4-isopropoxyphenyl)-1,2,4-oxadiazol-3-yl)-1,2,3,4-tetrahydronaphthalen-1-yl)-2-methoxyethanesulfonamide], for which the EC50 was 260 nM on S1P5; 0.192 nM at S1P1/EDG1 (setting [1]); 0.05 to 0.5 nM on S1P1/EDG1 (setting [2]); above 10000 nM on S1P3; 617 nM at S1P4; above 10000 nM at S1P2.
With `CC(C)Oc1ccc(-c2nc(-c3cccc4c3CCC[C@H]4NS(=O)(=O)CCO)no2)cc1C#N` [Compound 37, (R)-N-(5-(5-(3-cyano-4-isopropoxyphenyl)-1,2,4-oxadiazol-3-yl)-1,2,3,4-tetrahydronaphthalen-1-yl)-2-hydroxyethanesulfonamide], the EC50 at S1P5 is 3.5 nM; at S1P1/EDG1 (setting [1]) it was 0.024 nM; at S1P1/EDG1 (setting [2]), below 0.05 nM; on S1P3, above 10000 nM; on S1P4, 879 nM; on S1P2, 1440 nM.
Regarding `CC(C)Oc1ccc(-c2nc(-c3cccc4c3CCC[C@@H]4NCCS(C)(=O)=O)no2)cc1C#N` [Compound 49, (S)-2-isopropoxy-5-(3-(5-((42-(methylsulfonyl)ethyl)amino)-5,6,7,8-tetrahydronaphthalen-1-yl)-1,2,4-oxadiazol-5-yl)benzonitrile], the EC50 on S1P5 was 94.6 nM; on S1P1/EDG1 (setting [1]), 0.104 nM; at S1P1/EDG1 (setting [2]) it was 0.05 to 0.5 nM; on S1P3 it was above 10000 nM; at S1P4 it was above 10000 nM; at S1P2 it was above 10000 nM.

These data come from patent US9394264B2 (Receptos, Inc., priority 2009, dated 2016).
